{"source": "patent US20180008523A1", "about": "“ONYCHOMYCOSIS TREATMENT SYSTEM AND METHOD” (DEVICEFARM, INC., priority 2014, published 2018)", "system": "T. rubrum", "experiment": "Eradication of T. rubrum through a bovine hoof disk (modified Franz-type diffusion cell), colony count after treatment", "format": "cell-based, Trichophyton rubrum", "conditions": "3 ul PFD on hoof immediately before 45 minutes of plasma treatment; seven days of incubation; 94% for one hoof, 100% (no colonies) for the other two", "text": "Eradication of T. rubrum through a bovine hoof using Perfluorode alin (PFD) facilitator and an SMD plasma-generating device.\nThe in vitro test model uses a bovine, hoof disk, a surrogate nail model established in the literature. It is used along with a modified Franz-type diffusion cell to isolate the fungal contaminated side of the hoof in an enclosed chamber that ensures the treatment path is through the hoof barrier. An equal amount of T. rubrum is pipetted onto each hoof disc consisting of a 100 ul suspension. Each hoof disk is then placed fungus side down into the modified Franz cell and sealed with an O-ring. Each hoof is then plasma treated for 45 minutes where the average thickness of hoof disks is 0.35 mm. Eight hoof disks were treated as: • a. Control that is placed directly into the wash tube without any treatment • b. Two PFD-only hooves had 3 ul PFD pipetted directly onto the hoof opposite side from the fungus. This was allowed to sit for 45 minutes in the hood before placing in the wash tube. • c. Two Plasma treatment only hooves get just a 45 minute plasma is treatment (i.e., no PFD). • d. Three Plasma treatment with PFD hooves had 3 ul PFD pipetted directly onto the hoof opposite side from the fungus immediately before applying plasma treatment.\nAfter treatment, each hoof went through a fungal collection protocol consisting of washing, dilution, plating and incubation. […]", "note": "Where “and” joins values, the source holds several entries; their conditions need not be identical. Equal values may be shown once."}
{"compound": "FC1(F)C(F)(F)C(F)(F)C2(F)C(F)(F)C(F)(F)C(F)(F)C(F)(F)C2(F)C1(F)F", "note": "(stereo not shown) [PFD, perfluorodecalin]", "values": [{"measurement": "colony reduction compared to control", "result": "94% and 100%"}]}
